ChEMBL document CHEMBL4715771 (Bioorg Med Chem, 2016)
pIC50: −log10 of the molar value. Active and inactive are the calls of the source. No cut-off for these calls is given here.

What was measured:
MDA-MB-231 [1] = experiment: Antiproliferative activity against triple-negative human MDA-MB-231 cells overexpressing c-Met assessed as inhibition of cell proliferation measured after 72 hrs by MTT assay; format: functional, cell-based; details: MDA-MB-231, 72 h
MDA-MB-468 = experiment: Antiproliferative activity against triple-negative human MDA-MB-468 cells overexpressing c-Met assessed as inhibition of cell proliferation measured after 72 hrs by MTT assay; format: functional, cell-based; details: MDA-MB-468, 72 h
MCF7 = experiment: Antiproliferative activity against estrogen-dependent human MCF7 cells assessed as inhibition of cell proliferation measured after 72 hrs by MTT assay; format: functional, cell-based; details: MCF7, 72 h
T47D = experiment: Antiproliferative activity against estrogen-dependent human T47D cells assessed as inhibition of cell proliferation measured after 72 hrs by MTT assay; format: functional, cell-based
SK-BR-3 = experiment: Antiproliferative activity against ER-deficient human SK-BR-3 cells overexpressing HER2 assessed as inhibition of cell proliferation measured after 72 hrs by MTT assay; format: functional, cell-based; details: SK-BR-3, 72 h
BT-474 = experiment: Antiproliferative activity against ER-positive human BT-474 cells overexpressing HER2 assessed as inhibition of cell proliferation measured after 72 hrs by MTT assay; format: functional, cell-based; details: BT-474, 72 h
[2] = biological target: T1, Hepatocyte growth factor receptor (Homo sapiens, UniProt P08581); experiment: Inhibition of c-MET kinase domain (unknown origin) using Tyr6 peptide as substrate measured after 1 hr in presence of ATP by Z'-lyte kinase assay
[3] = biological target: T1, Hepatocyte growth factor receptor; experiment: Inhibition of c-MET in human MDA-MB-231 cells assessed as downregulation of activated phosphorylated Akt level measured after 72 hrs in presence of HGF by immunoblot analysis; format: cell-based; details: dose 1-3 µM
[4] = biological target: T1, Hepatocyte growth factor receptor; experiment: Inhibition of c-MET in human MDA-MB-231 cells assessed as downregulation of activated phosphorylated mTOR level measured after 72 hrs in presence of HGF by immunoblot analysis; format: cell-based; details: dose 1-3 µM
[5] = biological target: T1, Hepatocyte growth factor receptor; experiment: Inhibition of c-MET in human MDA-MB-231 cells assessed as downregulation of activated phosphorylated FAK level measured after 72 hrs in presence of HGF by immunoblot analysis; format: cell-based; details: dose 1-3 µM
[6] = biological target: T1, Hepatocyte growth factor receptor; experiment: Inhibition of c-MET in human MDA-MB-231 cells assessed as downregulation of activated phosphorylated paxillin level measured after 72 hrs in presence of HGF by immunoblot analysis; format: cell-based; details: dose 1-3 µM
[7] = biological target: T1, Hepatocyte growth factor receptor; experiment: Inhibition of c-MET in human MDA-MB-231 cells assessed as downregulation of activated phosphorylated MAPK level measured after 72 hrs in presence of HGF by immunoblot analysis; format: cell-based; details: dose 1-3 µM
MDA-MB-231 [8] = experiment: Cytotoxicity against human MDA-MB-231 cells assessed as induction of necrotic cell death by measuring LDH release at 0.5 to 8 uM measured after 24 hrs by LDH release assay; format: functional, cell-based; details: dose 0.5-8 µM
MCF-10A = experiment: Cytotoxicity against human MCF-10A cells assessed as cell death at 1 to 15 uM measured after 24 hrs by MTT assay; format: cell-based; details: dose 1-15 µM
[9] = Cytotoxicity against human MCF-10A cells assessed as reduction in cell viability at 15 uM measured after 24 hrs by MTT assay relative to control; format: cell-based; details: read-out: INH
[10] = biological target: Tyrosine-protein kinase ABL1 (Homo sapiens) (UniProt P00519); experiment: Inhibition of recombinant full length His-tagged human ABL1 expressed in baculovirus expression system at 10 uM by TR-FRET assay relative to control
[11] = biological target: ALK tyrosine kinase receptor (Homo sapiens) (UniProt Q9UM73); experiment: Inhibition of recombinant GST-tagged human ALK (1058 to 1620 residues) expressed in baculovirus expression system at 10 uM by TR-FRET assay relative to control
[12] = biological target: Tyrosine-protein kinase receptor UFO (Homo sapiens) (UniProt P30530); experiment: Inhibition of recombinant His-tagged human AXL (473 to end residues) expressed in insect cells at 10 uM by TR-FRET assay relative to control
[13] = biological target: Epidermal growth factor receptor (Homo sapiens) (UniProt P00533); experiment: Inhibition of recombinant GST-tagged human EGFR (668 to 1210 residues) expressed in baculovirus expression system at 10 uM by TR-FRET assay relative to control
[14] = biological target: Receptor tyrosine-protein kinase erbB-2 (Homo sapiens) (UniProt P04626); experiment: Inhibition of recombinant His-tagged human Erbb2 (676 to 1255 residues) expressed in baculovirus expression system at 10 uM by TR-FRET assay relative to control
[15] = biological target: Fibroblast growth factor receptor 1 (Homo sapiens) (UniProt P11362); experiment: Inhibition of recombinant His-tagged human FGFR1 (308 to 731 residues) expressed in baculovirus expression system at 10 uM by TR-FRET assay relative to control
[16] = biological target: Insulin-like growth factor 1 receptor (Homo sapiens) (UniProt P08069); experiment: Inhibition of recombinant C-terminal His-tagged human IGF1R (960 to 1397 residues) expressed in baculovirus expression system at 10 uM by TR-FRET assay relative to control
[17] = biological target: T1, Hepatocyte growth factor receptor; experiment: Inhibition of recombinant N-terminal His-tagged human MET (956 to 1390 residues) expressed in baculovirus expression system at 10 uM by TR-FRET assay relative to control
[18] = biological target: Macrophage-stimulating protein receptor (Homo sapiens) (UniProt Q04912); experiment: Inhibition of recombinant GST-tagged human RON (983 to 1440 residues) expressed in baculovirus expression system at 10 uM by TR-FRET assay relative to control
[19] = biological target: Proto-oncogene tyrosine-protein kinase ROS (Homo sapiens) (UniProt P08922); experiment: Inhibition of recombinant GST-tagged human ROS1 (1883 to 2347 residues) expressed in baculovirus expression system at 10 uM by TR-FRET assay relative to control
MDA-MB-231 [20] = experiment: Antitumor activity against GFP-tagged human MDA-MB-231 cells xenografted in athymic nude-Foxn1nu/Foxn1+ mouse assessed as the tumor volume at 10 mg/kg, ip dosed 3 times per week for 3 weeks treatment started 10 days of post inoculation by digital caliper method (reference value: 2048 mm3); format: functional
MDA-MB-231 [21] = experiment: Antitumor activity against GFP-tagged human MDA-MB-231 cells xenografted in athymic nude-Foxn1nu/Foxn1+ mouse assessed as the reduction in tumor growth at 10 mg/kg, ip dosed 3 times per week for 3 weeks treatment started 10 days of post inoculation digital caliper method relative to control; format: functional; details: MDA-MB-231, ip, 504 h, read-out: TGI
[22] = Toxicity in athymic nude-Foxn1nu/Foxn1+ mouse assessed as effect on body weight at 10 mg/kg, ip dosed 3 times per week for 3 weeks treatment started 10 days of post inoculation; format: organism-based; details: in vivo, 504 h
Mus musculus = experiment: Downregulation of phosphorylated c-Met level in tumor of athymic nude-Foxn1nu/Foxn1+ mouse xenografted with GFP-tagged human MDA-MB-231 cells at 10 mg/kg, ip dosed 3 times per week for 3 weeks treatment started 10 days of post inoculation by western blot analysis; format: functional, organism-based
[23] = biological target: T1, Hepatocyte growth factor receptor; experiment: Inhibition of c-MET in human MDA-MB-231 cells assessed as downregulation of activated phosphorylated c-MET level at 1 to 3 uM measured after 72 hrs in presence of HGF by immunoblot analysis; format: cell-based; details: dose 1-3 µM
MDA-MB-231 [24] = experiment: Antiinvasive activity against human MDA-MB-231 cells overexpressing c-Met assessed as inhibition of cell invasion at 2 uM measured after 24 hrs by Calcein AM dye based fluorescence assay; format: functional
MDA-MB-231 [25] = experiment: cells; details: Homo sapiens, MDA-MB-231, 23 h
MDA-MB-231 [26] = experiment: cells; details: Homo sapiens, MDA-MB-231, 24 h
[27] = biological target: T1, Hepatocyte growth factor receptor; experiment: Inhibition of c-MET in human MDA-MB-231 cells assessed as downregulation of activated phosphorylated c-MET level measured after 72 hrs in presence of HGF by immunoblot analysis; format: cell-based; details: dose 25-50 µM

T1 sequence (P08581 whole entry, the tested form may be a part): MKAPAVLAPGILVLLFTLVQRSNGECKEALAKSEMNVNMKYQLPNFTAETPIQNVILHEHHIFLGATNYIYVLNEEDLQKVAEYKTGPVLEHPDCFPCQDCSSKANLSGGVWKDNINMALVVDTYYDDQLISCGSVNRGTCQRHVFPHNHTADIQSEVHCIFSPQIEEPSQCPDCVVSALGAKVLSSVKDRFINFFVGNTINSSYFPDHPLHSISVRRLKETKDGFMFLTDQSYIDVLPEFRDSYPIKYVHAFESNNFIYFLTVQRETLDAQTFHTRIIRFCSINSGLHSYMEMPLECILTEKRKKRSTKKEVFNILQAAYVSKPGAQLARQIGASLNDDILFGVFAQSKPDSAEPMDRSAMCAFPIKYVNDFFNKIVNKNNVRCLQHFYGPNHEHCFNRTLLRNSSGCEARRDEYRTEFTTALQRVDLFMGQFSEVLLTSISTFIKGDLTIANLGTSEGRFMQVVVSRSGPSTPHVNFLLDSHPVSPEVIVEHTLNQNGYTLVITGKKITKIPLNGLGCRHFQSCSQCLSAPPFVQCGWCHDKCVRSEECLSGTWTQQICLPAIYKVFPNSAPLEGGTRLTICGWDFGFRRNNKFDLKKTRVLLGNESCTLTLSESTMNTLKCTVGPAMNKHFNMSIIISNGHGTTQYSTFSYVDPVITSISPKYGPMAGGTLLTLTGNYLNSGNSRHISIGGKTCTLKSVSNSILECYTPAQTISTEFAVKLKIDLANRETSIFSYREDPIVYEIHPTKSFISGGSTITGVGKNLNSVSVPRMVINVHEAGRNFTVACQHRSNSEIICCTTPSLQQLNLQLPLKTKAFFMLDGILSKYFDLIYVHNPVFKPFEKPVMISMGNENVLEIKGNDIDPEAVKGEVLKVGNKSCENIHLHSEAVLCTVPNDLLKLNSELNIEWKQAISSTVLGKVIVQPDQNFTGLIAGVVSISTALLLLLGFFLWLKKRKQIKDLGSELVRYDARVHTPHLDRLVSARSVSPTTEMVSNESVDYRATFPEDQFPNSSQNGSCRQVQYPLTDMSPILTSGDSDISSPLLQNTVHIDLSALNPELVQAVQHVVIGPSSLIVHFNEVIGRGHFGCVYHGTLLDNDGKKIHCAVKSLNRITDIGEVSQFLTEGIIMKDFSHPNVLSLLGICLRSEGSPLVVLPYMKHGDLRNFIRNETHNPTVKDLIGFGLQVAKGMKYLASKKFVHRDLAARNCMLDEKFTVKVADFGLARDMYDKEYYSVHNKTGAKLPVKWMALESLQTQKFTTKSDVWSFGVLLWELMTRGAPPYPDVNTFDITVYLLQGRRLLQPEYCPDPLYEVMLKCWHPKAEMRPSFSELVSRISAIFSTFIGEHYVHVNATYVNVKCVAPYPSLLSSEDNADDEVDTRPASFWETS
Sequence of Macrophage-stimulating protein receptor (Homo sapiens) (Q04912 25-304 limits assumed): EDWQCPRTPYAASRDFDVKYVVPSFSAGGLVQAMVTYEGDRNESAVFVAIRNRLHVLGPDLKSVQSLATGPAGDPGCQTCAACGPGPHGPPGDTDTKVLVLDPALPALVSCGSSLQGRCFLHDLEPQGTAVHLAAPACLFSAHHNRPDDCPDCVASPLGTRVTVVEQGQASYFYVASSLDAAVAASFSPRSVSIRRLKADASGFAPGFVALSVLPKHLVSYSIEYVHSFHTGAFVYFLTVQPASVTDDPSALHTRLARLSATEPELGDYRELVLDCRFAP
Sequence of Macrophage-stimulating protein receptor (Homo sapiens) (Q04912 310-1400 limits assumed): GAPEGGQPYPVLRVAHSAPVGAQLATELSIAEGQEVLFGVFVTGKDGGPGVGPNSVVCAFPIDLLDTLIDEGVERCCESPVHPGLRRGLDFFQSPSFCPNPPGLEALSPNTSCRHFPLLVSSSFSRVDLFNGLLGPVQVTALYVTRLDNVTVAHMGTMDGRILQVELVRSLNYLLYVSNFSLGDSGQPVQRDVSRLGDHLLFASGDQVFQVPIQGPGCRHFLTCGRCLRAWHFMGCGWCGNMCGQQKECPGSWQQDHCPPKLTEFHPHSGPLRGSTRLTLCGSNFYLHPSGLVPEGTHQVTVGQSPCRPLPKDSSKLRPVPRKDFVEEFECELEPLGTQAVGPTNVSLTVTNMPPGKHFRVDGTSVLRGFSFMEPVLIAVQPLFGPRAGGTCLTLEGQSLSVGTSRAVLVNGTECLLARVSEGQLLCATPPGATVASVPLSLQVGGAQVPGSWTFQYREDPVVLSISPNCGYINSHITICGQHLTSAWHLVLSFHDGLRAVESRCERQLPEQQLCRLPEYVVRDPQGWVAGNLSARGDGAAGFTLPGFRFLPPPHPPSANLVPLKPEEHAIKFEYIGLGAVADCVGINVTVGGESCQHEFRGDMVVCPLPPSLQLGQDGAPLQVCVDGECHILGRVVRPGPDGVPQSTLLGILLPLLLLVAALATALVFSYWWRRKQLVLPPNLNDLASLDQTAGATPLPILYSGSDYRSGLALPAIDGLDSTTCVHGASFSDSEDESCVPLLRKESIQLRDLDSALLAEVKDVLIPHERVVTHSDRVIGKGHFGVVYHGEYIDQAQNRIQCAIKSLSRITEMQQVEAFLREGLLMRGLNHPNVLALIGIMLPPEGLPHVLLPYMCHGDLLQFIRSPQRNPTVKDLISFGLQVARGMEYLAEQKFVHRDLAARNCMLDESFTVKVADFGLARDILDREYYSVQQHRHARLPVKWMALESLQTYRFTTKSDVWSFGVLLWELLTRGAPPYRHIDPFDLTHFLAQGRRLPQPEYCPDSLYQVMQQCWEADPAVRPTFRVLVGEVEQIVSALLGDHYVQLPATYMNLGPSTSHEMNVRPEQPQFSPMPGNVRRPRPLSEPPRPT
Sequence of Receptor tyrosine-protein kinase erbB-2 (Homo sapiens) (P04626 whole entry, the tested form may be a part): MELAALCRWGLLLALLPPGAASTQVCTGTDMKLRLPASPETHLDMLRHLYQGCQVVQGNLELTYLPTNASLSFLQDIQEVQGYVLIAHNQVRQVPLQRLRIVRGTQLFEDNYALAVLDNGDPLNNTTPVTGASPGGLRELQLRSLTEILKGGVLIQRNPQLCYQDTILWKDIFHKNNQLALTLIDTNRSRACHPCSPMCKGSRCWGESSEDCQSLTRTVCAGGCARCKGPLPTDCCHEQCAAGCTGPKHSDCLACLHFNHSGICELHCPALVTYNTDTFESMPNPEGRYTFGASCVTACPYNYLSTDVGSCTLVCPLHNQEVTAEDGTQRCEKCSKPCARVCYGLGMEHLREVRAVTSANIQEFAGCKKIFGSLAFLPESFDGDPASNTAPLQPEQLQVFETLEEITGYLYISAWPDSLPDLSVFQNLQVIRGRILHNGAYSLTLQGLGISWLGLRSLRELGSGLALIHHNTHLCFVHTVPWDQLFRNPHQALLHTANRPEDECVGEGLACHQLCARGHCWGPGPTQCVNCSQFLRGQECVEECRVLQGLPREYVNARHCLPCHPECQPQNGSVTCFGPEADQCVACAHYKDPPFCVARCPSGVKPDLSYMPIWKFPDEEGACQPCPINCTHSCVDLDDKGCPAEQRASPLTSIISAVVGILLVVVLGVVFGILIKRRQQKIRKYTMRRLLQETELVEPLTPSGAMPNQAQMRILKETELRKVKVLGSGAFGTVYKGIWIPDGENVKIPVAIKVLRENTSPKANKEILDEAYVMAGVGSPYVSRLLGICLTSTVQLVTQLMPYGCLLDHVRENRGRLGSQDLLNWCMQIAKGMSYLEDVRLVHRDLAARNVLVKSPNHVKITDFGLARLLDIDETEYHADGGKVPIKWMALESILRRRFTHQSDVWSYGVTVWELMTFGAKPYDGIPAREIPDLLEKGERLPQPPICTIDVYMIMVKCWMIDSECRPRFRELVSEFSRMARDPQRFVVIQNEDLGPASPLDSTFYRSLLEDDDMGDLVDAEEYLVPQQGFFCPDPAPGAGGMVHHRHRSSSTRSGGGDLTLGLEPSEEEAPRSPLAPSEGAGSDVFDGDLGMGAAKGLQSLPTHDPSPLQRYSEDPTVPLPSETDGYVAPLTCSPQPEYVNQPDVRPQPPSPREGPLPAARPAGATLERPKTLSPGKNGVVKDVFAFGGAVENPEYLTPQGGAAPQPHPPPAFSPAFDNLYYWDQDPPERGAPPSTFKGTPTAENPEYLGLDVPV
Sequence of Fibroblast growth factor receptor 1 (Homo sapiens) (P11362 22-822 limits assumed): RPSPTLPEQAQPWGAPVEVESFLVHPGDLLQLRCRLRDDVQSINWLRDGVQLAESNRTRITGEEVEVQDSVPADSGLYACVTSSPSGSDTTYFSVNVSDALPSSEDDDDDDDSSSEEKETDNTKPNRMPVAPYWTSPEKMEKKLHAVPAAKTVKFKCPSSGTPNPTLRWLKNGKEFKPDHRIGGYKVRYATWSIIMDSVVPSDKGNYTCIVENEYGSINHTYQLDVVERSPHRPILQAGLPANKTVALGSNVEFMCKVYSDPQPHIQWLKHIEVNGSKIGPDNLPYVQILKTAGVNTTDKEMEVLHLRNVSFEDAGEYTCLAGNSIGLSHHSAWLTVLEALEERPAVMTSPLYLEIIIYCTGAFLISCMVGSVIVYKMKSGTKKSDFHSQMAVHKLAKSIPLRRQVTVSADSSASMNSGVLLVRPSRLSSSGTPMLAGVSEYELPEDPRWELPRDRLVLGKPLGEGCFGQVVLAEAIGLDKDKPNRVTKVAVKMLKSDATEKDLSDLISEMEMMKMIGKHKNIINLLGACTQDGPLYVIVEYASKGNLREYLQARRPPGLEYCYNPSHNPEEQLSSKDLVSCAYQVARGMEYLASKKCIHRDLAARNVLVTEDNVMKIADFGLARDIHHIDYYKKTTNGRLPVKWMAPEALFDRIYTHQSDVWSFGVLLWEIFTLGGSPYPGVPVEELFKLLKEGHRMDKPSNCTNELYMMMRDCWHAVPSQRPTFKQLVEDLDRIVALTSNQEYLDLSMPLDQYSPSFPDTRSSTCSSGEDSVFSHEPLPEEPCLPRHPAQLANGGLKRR

C/C1=C\[C@H](OC(=O)Nc2cccc3ccccc23)C[C@](C)(O)/C=C/[C@H](C(C)C)CC/C(C)=C/CC1
pIC50 (MDA-MB-231 [1]): < 4.30 | pIC50 (MDA-MB-468): < 4.30

C/C1=C\[C@H](OC(=O)NC2CCCCC2)C[C@](C)(O)/C=C/[C@H](C(C)C)CC/C(C)=C/CC1
pIC50 (MDA-MB-231 [1]): 4.42 | pIC50 (MDA-MB-468): 4.40

CCc1ccc(NC(=O)O[C@H]2/C=C(\C)CC/C=C(\C)CC[C@@H](C(C)C)/C=C/[C@@](C)(O)C2)cc1
pIC50 (MDA-MB-231 [1]): 4.58 | pIC50 (MDA-MB-468): 4.59

C/C1=C\[C@H](OC(=O)Nc2cccc(C)c2)C[C@](C)(O)/C=C/[C@H](C(C)C)CC/C(C)=C/CC1
pIC50 (MDA-MB-231 [1]): 4.56 | pIC50 (MDA-MB-468): 4.55

C/C1=C\[C@H](OC(=O)Nc2ccc(Cl)cc2)C[C@](C)(O)/C=C/[C@H](C(C)C)CC/C(C)=C/CC1
pIC50 (MDA-MB-231 [1]): 4.87 | pIC50 (MDA-MB-468): 4.89

C/C1=C\[C@H](OC(=O)Nc2cccc(F)c2)C[C@](C)(O)/C=C/[C@H](C(C)C)CC/C(C)=C/CC1
pIC50 (MDA-MB-231 [1]): 4.79 | pIC50 (MDA-MB-468): 4.71

C/C1=C\[C@H](OC(=O)Nc2ccccc2Cl)C[C@](C)(O)/C=C/[C@H](C(C)C)CC/C(C)=C/CC1
pIC50 (MDA-MB-231 [1]): 4.86 | pIC50 (MDA-MB-468): 4.84

C/C1=C\[C@H](OC(=O)Nc2ccc(Cl)cc2Cl)C[C@](C)(O)/C=C/[C@H](C(C)C)CC/C(C)=C/CC1
pIC50 (MDA-MB-231 [1]): 4.98 | pIC50 (MDA-MB-468): 4.81

C/C1=C\[C@H](OC(=O)Nc2cc(C(F)(F)F)cc(C(F)(F)F)c2)C[C@](C)(O)/C=C/[C@H](C(C)C)CC/C(C)=C/CC1
pIC50 (MCF7): 5.14 | pIC50 (T47D): 4.95 | pIC50 (MDA-MB-231 [1]): 5.89 | pIC50 (MDA-MB-468): 5.68 | pIC50 (SK-BR-3): 5.33 | pIC50 (BT-474): 5.41 | pIC50 [2]: 5.96 | inhibition [2]: Dose-dependent effect | inhibition [3]: Dose-dependent effect | inhibition [4]: Dose-dependent effect | inhibition [5]: Dose-dependent effect | inhibition [6]: Dose-dependent effect | inhibition [7]: Dose-dependent effect | Activity (MDA-MB-231 [8]): Active | Activity (MCF-10A): Non-Toxic | cytotoxicity at 24 h, 15 µM [9]: 8.3% | inhibition [10]: 31% | inhibition [11]: 10% | inhibition [12]: 11% | inhibition [13]: 9% | inhibition [14]: 22% | inhibition [15]: 49% | inhibition [16]: 30% | inhibition [17]: 84% | inhibition [18]: 31% | inhibition [19]: 3% | Activity (MDA-MB-231 [20]): 716 mm3 | inhibition in vivo at 10 mg/kg (MDA-MB-231 [21]): 66.7% | Activity [22]: Non-Toxic | inhibition (Mus musculus): Active | inhibition [23]: Dose-dependent effect | Activity (MDA-MB-231 [24]): Active | pIC50 (MDA-MB-231 [25]): 5.85 | pIC50 (MDA-MB-231 [26]): 5.77

C/C1=C\[C@H](OC(=O)Nc2c(Cl)cccc2Cl)C[C@](C)(O)/C=C/[C@H](C(C)C)CC/C(C)=C/CC1
pIC50 (MDA-MB-231 [1]): 4.97 | pIC50 (MDA-MB-468): 4.91

C/C1=C\[C@H](OC(=O)Nc2ccccc2F)C[C@](C)(O)/C=C/[C@H](C(C)C)CC/C(C)=C/CC1
pIC50 (MDA-MB-231 [1]): 4.79 | pIC50 (MDA-MB-468): 4.75

C/C1=C\[C@H](OC(=O)Nc2ccc(Cl)c(Cl)c2)C[C@](C)(O)/C=C/[C@H](C(C)C)CC/C(C)=C/CC1
pIC50 (MDA-MB-231 [1]): 5.07 | pIC50 (MDA-MB-468): 4.97

C/C1=C\[C@H](OC(=O)Nc2ccc(-c3ccccc3)cc2)C[C@](C)(O)/C=C/[C@H](C(C)C)CC/C(C)=C/CC1
pIC50 (MDA-MB-231 [1]): < 4.30 | pIC50 (MDA-MB-468): < 4.30

C/C1=C\[C@H](O)C[C@](C)(O)/C=C/[C@H](C(C)C)CC/C(C)=C/CC1
pIC50 [2]: 4.65 | inhibition [27]: Dose-dependent effect

C/C1=C\[C@H](OC(=O)Nc2ccc(C(F)(F)F)cc2)C[C@](C)(O)/C=C/[C@H](C(C)C)CC/C(C)=C/CC1
pIC50 (MDA-MB-231 [1]): 5.05 | pIC50 (MDA-MB-468): 4.94

C/C1=C\[C@H](OC(=O)Nc2cccc(C(F)(F)F)c2)C[C@](C)(O)/C=C/[C@H](C(C)C)CC/C(C)=C/CC1
pIC50 (MDA-MB-231 [1]): 5.31 | pIC50 (MDA-MB-468): 5.24 | pIC50 [2]: 5.74

C/C1=C\[C@H](OC(=O)Nc2ccccc2)C[C@](C)(O)/C=C/[C@H](C(C)C)CC/C(C)=C/CC1
pIC50 (MDA-MB-231 [1]): 4.70 | pIC50 (MDA-MB-468): 4.64

C/C1=C\[C@H](OC(=O)Nc2cc(Cl)cc(Cl)c2)C[C@](C)(O)/C=C/[C@H](C(C)C)CC/C(C)=C/CC1
pIC50 (MDA-MB-231 [1]): 5.28 | pIC50 (MDA-MB-468): 5.18 | pIC50 [2]: 5.54

C/C1=C\[C@H](OC(=O)Nc2cccc(Cl)c2)C[C@](C)(O)/C=C/[C@H](C(C)C)CC/C(C)=C/CC1
pIC50 (MDA-MB-231 [1]): 5.04 | pIC50 (MDA-MB-468): 4.97 | pIC50 [2]: 5.47
